Laboratory results taken from PMC10257182, “Discovery of senolytics using machine learning” (Nature Communications, 2023).
Several values for one entry are separate records, joined by “and”; a condition that tells them apart may be missing. Identical values can stand only once.

Assays:
Type in all cases: cell-based, human
[1] = tested on: non-senescent control A549 cells; test: Nuclei count senolytic assay, TIS model, non-senescent control cells; settings: Control cells, mean
Outline: (§1)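 Nuclei counting by high-content imaging after 72 h compound treatment of senescent (etoposide-induced) versus control A549 cells. Top dose 10 μM final, lowest 10 nM.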

[2] = tested on: senescent IMR90 ER:RAS cells (4-OHT-induced); test: Nuclei count (Hoechst, high content imaging) senolytic assay, oncogene-induced senescence (OIS) model, senescent cells; settings: for Mean % Cell Survival: mean n=3 (Fig 3C)
Outline: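 We compared total nuclei counts between senescent and non-senescent IMR90 ER:RAS cells after 72 h compound exposure (10 nM–10 μM). Hoechst staining followed fixation and permeabilisation; ouabain served as senolytic positive control.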

[3] = tested on: senescent A549 cells (etoposide-induced); test: Nuclei count senolytic assay, therapy-induced senescence (TIS) model, senescent cells; settings: Senescent cells, mean
Outline: as §1

Structure (SMILES): CC(C)=CCc1c(O)cc2oc3cc(O)c(O)c(CC=C(C)C)c3c(=O)c2c1O [Gamma mangostin, gamma mangostin]
- Mean % Cell Survival ([1]; log (dose) [M] -5): 93.7374%
- Mean % Cell Survival ([1]; log (dose) [M] -5.33): 87.8038%
- Mean % Cell Survival ([1]; log (dose) [M] -5.66): 85.4347%
- Mean % Cell Survival ([1]; log (dose) [M] -6): 84.7862%
- Mean % Cell Survival ([1]; log (dose) [M] -6.33): 88.6728%
- Mean % Cell Survival ([1]; log (dose) [M] -6.66): 87.417%
- Mean % Cell Survival ([1]; log (dose) [M] -7): 92.9654%
- Mean % Cell Survival ([1]; log (dose) [M] -7.33): 92.7713%
- Mean % Cell Survival ([1]; log (dose) [M] -7.66): 95.9525%
- Mean % Cell Survival ([1]; log (dose) [M] -8): 100.153%
- % Cell Survival ([2]; Senescent cells, log (dose) [M] -5, individual replicates, SUP FIG 4C): 68.9759% and 85.4054% and 104.1% and 60.479%
- % Cell Survival ([2]; Senescent cells, log (dose) [M] -5.33, individual replicates, SUP FIG 4C): 98.1928% and 112.613% and 125.668% and 83.9521%
- % Cell Survival ([2]; Senescent cells, log (dose) [M] -5.66, individual replicates, SUP FIG 4C): 81.0241% and 178.198% and 139.216% and 80.9581%
- % Cell Survival ([2]; Senescent cells, log (dose) [M] -6, individual replicates, SUP FIG 4C): 64.6084% and 123.964% and 135.651% and 83.2335%
- % Cell Survival ([2]; Senescent cells, log (dose) [M] -6.33, individual replicates, SUP FIG 4C): 91.7169% and 121.982% and 131.907% and 40.8383%
- % Cell Survival ([2]; Senescent cells, log (dose) [M] -6.66, individual replicates, SUP FIG 4C): 78.1627% and 116.757% and 113.904% and 77.1257%
- % Cell Survival ([2]; Senescent cells, log (dose) [M] -7, individual replicates, SUP FIG 4C): 99.8494% and 112.432% and 120.856% and 67.0659%
- % Cell Survival ([2]; Senescent cells, log (dose) [M] -7.33, individual replicates, SUP FIG 4C): 98.3434% and 101.081% and 114.082% and 90.8982%
- % Cell Survival ([2]; Senescent cells, log (dose) [M] -7.66, individual replicates, SUP FIG 4C): 107.681% and 108.829% and 116.934% and 93.4132%
- % Cell Survival ([2]; Senescent cells, log (dose) [M] -8, individual replicates, SUP FIG 4C): 107.53% and 115.315% and 113.725% and 84.9102%
- Mean % Cell Survival ([2]; Senescent, log (dose) [M] -5, 72 h): 79.74%
- Mean % Cell Survival ([2]; Senescent, log (dose) [M] -5.33, 72 h): 105.106%
- Mean % Cell Survival ([2]; Senescent, log (dose) [M] -5.66, 72 h): 119.849%
- Mean % Cell Survival ([2]; Senescent, log (dose) [M] -6, 72 h): 101.864%
- Mean % Cell Survival ([2]; Senescent, log (dose) [M] -6.33, 72 h): 96.6111%
- Mean % Cell Survival ([2]; Senescent, log (dose) [M] -6.66, 72 h): 96.4872%
- Mean % Cell Survival ([2]; Senescent, log (dose) [M] -7, 72 h): 100.051%
- Mean % Cell Survival ([2]; Senescent, log (dose) [M] -7.33, 72 h): 101.101%
- Mean % Cell Survival ([2]; Senescent, log (dose) [M] -7.66, 72 h): 106.714%
- Mean % Cell Survival ([2]; Senescent, log (dose) [M] -8, 72 h): 105.37%
- % Cell Survival ([2]; Senescent, log (dose) [M] -5): 105.907% and 101.805% and 105.566%
- % Cell Survival ([2]; Senescent, log (dose) [M] -5.33): 105.42% and 104.907% and 107.486%
- % Cell Survival ([2]; Senescent, log (dose) [M] -5.66): 112.424% and 103.215% and 110.173%
- % Cell Survival ([2]; Senescent, log (dose) [M] -6): 104.019% and 94.1906% and 105.054%
- % Cell Survival ([2]; Senescent, log (dose) [M] -6.33): 116.322% and 101.974% and 111.9%
- % Cell Survival ([2]; Senescent, log (dose) [M] -6.66): 112.85% and 97.8003% and 108.125%
- % Cell Survival ([2]; Senescent, log (dose) [M] -7): 120.95% and 109.419% and 113.308%
- % Cell Survival ([2]; Senescent, log (dose) [M] -7.33): 110.231% and 111.901% and 120.282%
- % Cell Survival ([2]; Senescent, log (dose) [M] -7.66): 99.6955% and 109.475% and 108.701%
- % Cell Survival ([2]; Senescent, log (dose) [M] -8): 101.705% and 108.629% and 104.99%
- Mean % Cell Survival ([3]; log (dose) [M] -5): 104.426%
- Mean % Cell Survival ([3]; log (dose) [M] -5.33): 105.938%
- Mean % Cell Survival ([3]; log (dose) [M] -5.66): 108.604%
- Mean % Cell Survival ([3]; log (dose) [M] -6): 101.088%
- Mean % Cell Survival ([3]; log (dose) [M] -6.33): 110.065%
- Mean % Cell Survival ([3]; log (dose) [M] -6.66): 106.259%
- Mean % Cell Survival ([3]; log (dose) [M] -7): 114.559%
- Mean % Cell Survival ([3]; log (dose) [M] -7.33): 114.138%
- Mean % Cell Survival ([3]; log (dose) [M] -7.66): 105.957%
- Mean % Cell Survival ([3]; log (dose) [M] -8): 105.108%
